We go through eight molecules from ChEMBL document CHEMBL4145491, “Bysspectin A, an unusual octaketide dimer and the precursor derivatives from the endophytic fungus Byssochlamys spectabilis IMM0002 and their biological activities” (Eur J Med Chem, 2018).

For one data set, the target named is T1, Liver carboxylesterase 1 (Homo sapiens, UniProt P23141).
T1 sequence (P23141 whole entry): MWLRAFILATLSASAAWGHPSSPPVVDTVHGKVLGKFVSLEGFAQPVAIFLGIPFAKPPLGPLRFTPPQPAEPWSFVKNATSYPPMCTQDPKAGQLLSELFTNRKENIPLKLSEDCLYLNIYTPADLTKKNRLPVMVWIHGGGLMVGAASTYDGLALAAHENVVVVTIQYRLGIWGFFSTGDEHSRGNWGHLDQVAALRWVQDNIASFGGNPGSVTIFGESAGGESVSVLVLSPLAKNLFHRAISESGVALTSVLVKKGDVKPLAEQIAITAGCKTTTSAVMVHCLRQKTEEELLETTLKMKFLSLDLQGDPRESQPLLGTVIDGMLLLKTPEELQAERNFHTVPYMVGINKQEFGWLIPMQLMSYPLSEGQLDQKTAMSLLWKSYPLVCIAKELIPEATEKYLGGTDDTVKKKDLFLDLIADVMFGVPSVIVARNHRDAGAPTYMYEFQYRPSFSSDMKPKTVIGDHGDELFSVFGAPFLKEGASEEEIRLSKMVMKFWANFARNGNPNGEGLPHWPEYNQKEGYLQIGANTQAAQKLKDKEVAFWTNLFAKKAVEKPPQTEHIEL
The data set is described as follows: Inhibition of CE1 in human liver microsomes using D-Luciferin methyl ester as substrate preincubated for 10 mins followed by substrate addition measured after 10 mins by luminescence assay.

Data set [1] relates to Escherichia coli. The data set is described as follows: Antibacterial activity against Escherichia coli ATCC 25922 at 30 ug/disk. It is filed as functional.
Data set [2] concerns Staphylococcus aureus. Nature of the data set: Antibacterial activity against Staphylococcus aureus ATCC 25923 at 30 ug/disk. It is filed as functional.
The next data set deals with Candida albicans. Nature of the data set: Anti-fungal activity against Candida albicans at 30 ug/disk. It is filed as functional.
Data set [3] concerns the target T2, Tyrosine-protein phosphatase non-receptor type 1 (Homo sapiens) (UniProt P18031).
T2 sequence (whole entry): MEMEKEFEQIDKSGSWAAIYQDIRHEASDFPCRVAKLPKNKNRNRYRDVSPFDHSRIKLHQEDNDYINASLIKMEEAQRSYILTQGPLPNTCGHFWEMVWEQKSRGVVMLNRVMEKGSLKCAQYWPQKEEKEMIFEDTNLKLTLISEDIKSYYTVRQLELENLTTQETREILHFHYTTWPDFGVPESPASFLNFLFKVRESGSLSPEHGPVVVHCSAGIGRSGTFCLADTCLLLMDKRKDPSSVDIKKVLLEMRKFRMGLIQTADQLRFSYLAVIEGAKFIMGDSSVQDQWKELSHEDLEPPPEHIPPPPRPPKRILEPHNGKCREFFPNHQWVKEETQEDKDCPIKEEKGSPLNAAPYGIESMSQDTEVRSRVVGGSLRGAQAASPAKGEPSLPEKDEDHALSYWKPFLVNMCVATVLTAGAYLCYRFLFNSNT
Nature of the data set: Inhibition of recombinant human GST-tagged PTP1B at 10 uM using p-NPP as substrate after 10 mins by spectrophotometric method.

The next data set relates to Peritoneal macrophage. The data set is described as follows: Anti-inflammatory activity in C57BL6J mouse peritoneal macrophages assessed as inhibition of LPS-induced TNF-alpha secretion at 10 uM after 24 hrs. The format is functional, cell-based.
Another data set concerns A2780. The data set is described as follows: Cytotoxicity against human A2780 cells after 24 hrs by MTT assay. The format is functional, cell-based.
The next data set relates to HCT-8. The data set is described as follows: Cytotoxicity against human HCT8 cells after 24 hrs by MTT assay. The format is functional, cell-based.
In a further data set the test system is A549. The data set is described as follows: Cytotoxicity against human A549 cells after 24 hrs by MTT assay. It is filed as functional, cell-based.
The next data set relates to BGC-823. The data set is described as follows: Cytotoxicity against human BGC823 cells after 24 hrs by MTT assay. The format is functional, cell-based.
The species entered for a further data set is Homo sapiens. The data set is described as follows: Selectivity ratio of IC50 for inhibition of CE1 in human liver microsomes to IC50 for inhibition of CE2 in human liver microsomes.
The subject of the next data set is Bel-7402. The data set is described as follows: Cytotoxicity against human Bel7402 cells after 24 hrs by MTT assay. The format is functional, cell-based.
In data set [4] the target is T3, Cocaine esterase (Homo sapiens, UniProt O00748).
T3 sequence (O00748 whole entry): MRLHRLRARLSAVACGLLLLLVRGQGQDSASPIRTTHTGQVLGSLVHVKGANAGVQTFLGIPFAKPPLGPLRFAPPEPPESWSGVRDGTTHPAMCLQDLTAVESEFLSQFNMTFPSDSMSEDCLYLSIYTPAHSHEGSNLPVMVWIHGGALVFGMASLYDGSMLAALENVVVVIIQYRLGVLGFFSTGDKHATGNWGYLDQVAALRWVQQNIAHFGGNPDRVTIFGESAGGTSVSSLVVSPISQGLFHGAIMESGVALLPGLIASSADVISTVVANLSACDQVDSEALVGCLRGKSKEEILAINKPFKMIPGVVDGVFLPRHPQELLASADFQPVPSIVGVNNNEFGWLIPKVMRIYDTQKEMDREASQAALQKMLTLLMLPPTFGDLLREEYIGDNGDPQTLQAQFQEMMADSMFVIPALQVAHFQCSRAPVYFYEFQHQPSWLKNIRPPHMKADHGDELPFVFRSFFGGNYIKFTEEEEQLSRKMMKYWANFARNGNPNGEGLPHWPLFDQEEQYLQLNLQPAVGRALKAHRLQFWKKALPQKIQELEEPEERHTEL
The data set is described as follows: Inhibition of CE2 in human liver microsomes using fluorescein diacetate as substrate preincubated for 10 mins followed by substrate addition measured after 20 mins by […] assay.

For the next data set, the system named is HepG2. The data set is described as follows: Protection against acetaminophen-induced cell injury in human HepG2 cells at 10 uM after 24 hrs by MTT assay. The format is functional, cell-based.
Data set [5] deals with Staphylococcus aureus. The data set is described as follows: Antibacterial activity against Staphylococcus aureus ATCC 25923 after 24 hrs by broth microdilution method. It is filed as functional. As to conditions: ATCC 25923, 24 h.
The subject of data set [6] is Mycolicibacterium smegmatis. The data set is described as follows: Antibacterial activity against Mycobacterium smegmatis MC2 155 ATCC […] after 24 hrs by broth microdilution method. The format is functional.
The subject of data set [7] is Staphylococcus epidermidis. Nature of the data set: Antibacterial activity against Staphylococcus epidermidis ATCC 12228 after 24 hrs by broth microdilution method. The format is functional. As to conditions: ATCC 12228, 24 h.
For data set [8], the system named is Escherichia coli. Nature of the data set: Antibacterial activity against Escherichia coli ATCC 25922 after 24 hrs by broth microdilution method. It is filed as functional. Particulars: ATCC 25922, 24 h.
The target in data set [9] is T3, Cocaine esterase. Nature of the data set: Reversible inhibition of CE2 in human liver microsomes up to 120 uM using fluorescein diacetate as substrate preincubated for 10 mins followed by substrate addition measured after 20 mins by […] assay.
For data set [10], the target named is T4, CE2 (carboxylesterase 2; cocaine esterase) (Homo sapiens, UniProt O00748).
T4 sequence (O00748 whole entry): T3 sequence (O00748 whole entry)
Nature of the data set: Potency index, ratio of loperamide IC50 to compound IC50 for inhibition of CE2 in human liver microsomes. As to conditions: read-out: Ratio IC50.

For data set [11], the target named is T3, Cocaine esterase. The data set is described as follows: Competitive inhibition of CE2 in human liver microsomes using fluorescein diacetate as substrate preincubated for 10 mins followed by substrate addition measured after 20 mins by Lineweaver-Burk plot analysis.

pIC50, pKi: −log10 of the molar value. In brackets after ≈: the same amount, converted by molar mass. Activity calls are given as the source filed them. The rule behind the calls is not given here.

Take `O=[N+]([O-])c1ccc(OP(=O)(O)Oc2ccc([N+](=O)[O-])cc2)cc1`: on Liver carboxylesterase 1, the pIC50 was 6.68.

Regarding `CC1(C)S[C@@H]2[C@H](NC(=O)[C@H](N)c3ccccc3)C(=O)N2[C@H]1C(=O)O` [AMPICILLIN], the zone of inhibition at 30 µg/disc is 16 to 20 mm with Escherichia coli [1] (read-out: DIZ) and over 20 mm in the data set on Staphylococcus aureus [2] (read-out: DIZ). The “diameter of the inhibition zone (DIZ)” value with Candida albicans is “inactive”.

As for `CCCCCCCC[C@@H]1OC(=O)c2c(O)cccc21` [PAECILOCIN A], the inhibition entry (in [3]; in the data set on Peritoneal macrophage) was “inactive” each time. For the same molecule, the result in the data set on A2780, in the data set with HCT-8, in the data set on A549, in the data set on BGC-823, in the data set on Bel-7402 and in the data set with HepG2 was inactive. In addition, in the data set filed under Homo sapiens, the Ratio IC50 is over 4.29. The values for the pIC50 against Liver carboxylesterase 1 and against Cocaine esterase [4] were under 4.00 and 4.63, respectively.

Take `C[C@H]1COc2c(N3CCN(C)CC3)c(F)cc3c(=O)c(C(=O)O)cn1c23.C[C@H]1COc2c(N3CCN(C)CC3)c(F)cc3c(=O)c(C(=O)O)cn1c23.O` [LEVOFLOXACIN]: the lowest concentration to inhibit growth against Staphylococcus aureus [5] (MIC) was 0.12 µg/mL.

`CCCCCCC/C=C1\OC(=O)c2c(O)cccc21`: the inhibition result (in [3]; with Peritoneal macrophage) was “inactive” in each case. For the same molecule, the result with A2780, in the data set with HCT-8, in the data set on A549, with BGC-823, in the data set on Bel-7402 and in the data set on HepG2 was inactive. Further, the minimal inhibitory concentration (MIC) (in data set [6]; in data set [7]; against Escherichia coli [8]; with Staphylococcus aureus [5]) was over 128 µg/mL in each case.

Turning to `CCCCCCCCC(=O)c1cccc(O)c1-c1cc2c(C(=O)CCCCCCCC)cccc2o1`, the inhibition result (in [3]; with Peritoneal macrophage) was “inactive” in each case. Further, the “inhibition (INH)” value on Cocaine esterase [9] was “Active”. The result in the data set with A2780, in the data set with HCT-8, in the data set on A549, in the data set with BGC-823, with Bel-7402 and in the data set with HepG2 was inactive. Moreover, the MIC (in data set [6]; in data set [7]; in the data set with Escherichia coli [8]; in the data set with Staphylococcus aureus [5]) was over 128 µg/mL in each case. Also, the Ratio IC50 in the data set filed under Homo sapiens is over 49.8. Moreover, the pIC50 on Liver carboxylesterase 1 is under 4.00; against Cocaine esterase [4], 5.70. In [10], the selectivity ratio worked out at 2. Also, at Cocaine esterase [11], the pKi was 5.63.

Turning to `C[C@@H]1[C@H](O)[C@@H](C)/C=C/C=C/C=C/C=C/C=C/C=C/C=C/[C@H](O[C@@H]2O[C@H](C)[C@@H](O)[C@H](N)[C@@H]2O)C[C@@H]2O[C@](O)(C[C@@H](O)C[C@@H](O)[C@H](O)CC[C@@H](O)C[C@@H](O)CC(=O)O[C@H]1C)C[C@H](O)[C@H]2C(=O)O` [AMPHOTERICIN B], the “diameter of the inhibition zone (DIZ)” value in the data set with Escherichia coli [1] and in the data set on Staphylococcus aureus [2] was “inactive” each time. Also, the zone of inhibition at 30 µg/disc in the data set on Candida albicans (read-out: DIZ) is over 20 mm.

`CCCCCCCCCc1cccc(O)c1C=O`: the inhibition entry (in [3]; in the data set on Peritoneal macrophage) was “inactive” throughout. Also, the result in the data set on A2780, with HCT-8, in the data set on A549, with BGC-823, in the data set with Bel-7402 and in the data set with HepG2 was inactive. Further, the MIC against Escherichia coli [8] was 32 µg/mL (≈ 129 µM); against Staphylococcus aureus [5], 64 µg/mL (≈ 258 µM).
